This passage reports T/C results from PubChem BioAssay AID248 (DTP/NCI, 2004).

For this experiment, the system named is L1210 leukemia ip in BDF1 mice, survival T/C. Nature of the experiment: NCI In Vivo Anticancer Drug Screen. Data for tumor model L1210 Leukemia (intraperitoneal) in B6D2F1 (BDF1) mice. The following applies: endpoint: mean survival time, higher = longer survival. The procedure, abridged:
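Tumor was transplanted into mice, which were then dosed with test compound or vehicle alone. Survival was recorded for each group, and the treated figure was expressed relative to the control figure.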

Where [1] appears, read: dose: 100.0 mg/kg/injection, schedule: Q01DX009 (ip), vehicle: saline with Tween-80.
Setting [2] is: dose: 100.0 mg/kg/injection, schedule: Q04DX003 (ip), vehicle: saline with Tween-80.
[3] abbreviates: dose: 200.0 mg/kg/injection, schedule: Q01DX009 (ip), vehicle: saline with Tween-80.
[4] abbreviates: dose: 200.0 mg/kg/injection, schedule: Q04DX003 (ip), vehicle: saline with Tween-80.
Where [5] appears, read: dose: 400.0 mg/kg/injection, schedule: Q01DX009 (ip), vehicle: saline with Tween-80.
[6] abbreviates: dose: 400.0 mg/kg/injection, schedule: Q04DX003 (ip), vehicle: saline with Tween-80.
Setting [7] is: dose: 100.0 mg/kg/injection, schedule: Q01DX001 (ip), vehicle: saline.
Where [8] appears, read: dose: 200.0 mg/kg/injection, schedule: Q01DX001 (ip), vehicle: saline.
[9] abbreviates: dose: 50.0 mg/kg/injection, schedule: Q01DX001 (ip), vehicle: saline.
Where [10] appears, read: dose: 400.0 mg/kg/injection, schedule: Q01DX001 (ip), vehicle: saline.
[11] abbreviates: dose: 100.0 mg/kg/injection, schedule: Q04DX002 (ip), vehicle: saline.

Toxic doses and inconclusive results are not listed.

Regarding `C#CC1(OCC(CCl)OC(N)=O)CCCCC1` (configuration not stated), the T/C is 105 % of control (dose: 25.0 mg/kg/injection, schedule: Q01DX009 (ip), vehicle: saline with Tween-80); 105 % of control (dose: 25.0 mg/kg/injection, schedule: Q04DX003 (ip), vehicle: saline with Tween-80); 105 % of control (dose: 50.0 mg/kg/injection, schedule: Q01DX009 (ip), vehicle: saline with Tween-80); 95 % of control (dose: 50.0 mg/kg/injection, schedule: Q04DX003 (ip), vehicle: saline with Tween-80); 102 % of control under setting [1]; 101 % of control under setting [2]. The T/C under setting [3] was 105 % of control, the T/C under setting [4] is 100 % of control, the T/C under setting [5] is 97 % of control and the T/C under setting [6] is 86 % of control.

As to `COC(=O)c1[nH]cnc1/N=N/N(C)C`, the T/C runs as follows: (dose: 6.75 mg/kg/injection, schedule: Q01DX009 (ip), vehicle: saline) 119 % of control; (dose: 9.3 mg/kg/injection, schedule: Q01DX015 (ip), vehicle: saline) 113 % of control; (dose: 11.25 mg/kg/injection, schedule: Q01DX Z (ip), vehicle: saline) 124 % of control; (dose: 22.25 mg/kg/injection, schedule: Q04DX003 (ip), vehicle: saline) 115 % of control; (dose: 27.0 mg/kg/injection, schedule: Q01DX009 (ip), vehicle: saline) 150 % of control; (dose: 31.0 mg/kg/injection, schedule: Q01DX Z (ip), vehicle: saline) 171 % of control. Moreover, the T/C reads like this: (dose: 44.5 mg/kg/injection, schedule: Q04DX003 (ip), vehicle: saline) 120 % of control; (dose: 46.0 mg/kg/injection, schedule: Q01DX Z (ip), vehicle: saline) 160 % of control; (dose: 54.0 mg/kg/injection, schedule: Q01DX015 (ip), vehicle: saline) 164 % of control; (dose: 57.5 mg/kg/injection, schedule: Q01DX001 (ip), vehicle: saline) 114 % of control; (dose: 62.0 mg/kg/injection, schedule: Q01DX Z (ip), vehicle: saline) 121 % of control; (dose: 88.0 mg/kg/injection, schedule: Q01DX001 (ip), vehicle: saline) 112 % of control. For the same compound, the T/C is 124 % of control (dose: 88.8 mg/kg/injection, schedule: Q01DX001 (ip), vehicle: saline); 114 % of control (dose: 90.0 mg/kg/injection, schedule: Q01DX015 (ip), vehicle: saline); 124 % of control under setting [7]; 114 % of control (dose: 115.0 mg/kg/injection, schedule: Q01DX001 (ip), vehicle: saline); 115 % of control (dose: 133.0 mg/kg/injection, schedule: Q01DX001 (ip), vehicle: saline); 121 % of control under setting [8]. Further, for the setting “dose: 231.0 mg/kg/injection, schedule: Q01DX001 (ip), vehicle: saline”, the T/C is 123 % of control.

Turning to `CCc1cc(C)cc(OC(=O)Nc2ccccc2)c1`, the T/C reads like this: under setting [1], 87 % of control; under setting [2], 93 % of control; under setting [3], 88 % of control; under setting [4], 93 % of control; under setting [5], 92 % of control.

With `CCOP(=S)(OCC)OP(=S)(OCC)OCC`, the T/C (dose: 1.0 mg/kg/injection, schedule: Q01DX009 (ip), vehicle: other) is 108 % of control; the T/C (dose: 1.0 mg/kg/injection, schedule: Q04DX003 (ip), vehicle: other) is 100 % of control; the T/C (dose: 2.0 mg/kg/injection, schedule: Q01DX009 (ip), vehicle: other) is 90 % of control; the T/C (dose: 2.0 mg/kg/injection, schedule: Q04DX003 (ip), vehicle: other) was 97 % of control; the T/C (dose: 4.0 mg/kg/injection, schedule: Q04DX003 (ip), vehicle: other) is 100 % of control.

With `O=C1NOCC1NCc1c(O)ccc2ccccc12` (configuration not stated), the T/C was 87 % of control under setting [2], 100 % of control under setting [4] and 97 % of control under setting [6].

Regarding `CCCCOP(=O)(OCCCC)OC(C#N)CCC` (configuration not stated), the T/C (dose: 100.0 mg/kg/injection, schedule: Q04DX002 (ip), vehicle: Klucel (hydroxypropylcellulose) (HPC)) was 107 % of control and the T/C (dose: 200.0 mg/kg/injection, schedule: Q04DX002 (ip), vehicle: Klucel (hydroxypropylcellulose) (HPC)) is 98 % of control.

As for `O=[N+]([O-])c1ccc2nc(-c3ccc(S(=O)(=O)F)cc3)cc(Cl)c2c1`, the T/C runs as follows: under setting [2], 98 % of control; under setting [4], 106 % of control; under setting [6], 98 % of control.

On to `O=[N+]([O-])c1cccc(N(CCO)CCO)c1`, for which the T/C was 96 % of control under setting [9], 106 % of control under setting [7], 93 % of control under setting [8] and 100 % of control under setting [10].

For the compound `Nc1nc(CNc2ccccc2)nc(Nc2ccccc2)n1`, the T/C was 89 % of control under setting [2], 101 % of control under setting [4] and 89 % of control under setting [6].

On to `CC(C)(C)C1(O)CCCCC1`, for which the T/C is 99 % of control (dose: 100.0 mg/kg/injection, schedule: Q01DX009 (ip), vehicle: Klucel (hydroxypropylcellulose) (HPC)); 98 % of control (dose: 100.0 mg/kg/injection, schedule: Q04DX003 (ip), vehicle: Klucel (hydroxypropylcellulose) (HPC)); 92 % of control (dose: 200.0 mg/kg/injection, schedule: Q01DX009 (ip), vehicle: Klucel (hydroxypropylcellulose) (HPC)); 100 % of control (dose: 200.0 mg/kg/injection, schedule: Q04DX003 (ip), vehicle: Klucel (hydroxypropylcellulose) (HPC)); 92 % of control (dose: 400.0 mg/kg/injection, schedule: Q01DX009 (ip), vehicle: Klucel (hydroxypropylcellulose) (HPC)); 98 % of control (dose: 400.0 mg/kg/injection, schedule: Q04DX003 (ip), vehicle: Klucel (hydroxypropylcellulose) (HPC)).

Take `O=C(C1CC=CCC1)N1CCCC1` (configuration not stated): the T/C under setting [11] was 101 % of control; the T/C (dose: 200.0 mg/kg/injection, schedule: Q04DX002 (ip), vehicle: saline) is 104 % of control; the T/C (dose: 400.0 mg/kg/injection, schedule: Q04DX002 (ip), vehicle: saline) is 104 % of control.

For `O=C1c2cc([N+](=O)[O-])ccc2-c2c1cccc2[N+](=O)[O-]`, the T/C runs as follows: (dose: 18.75 mg/kg/injection, schedule: Q01DX001 (ip), vehicle: Klucel (hydroxypropylcellulose) (HPC)) 96 % of control; (dose: 37.5 mg/kg/injection, schedule: Q01DX001 (ip), vehicle: Klucel (hydroxypropylcellulose) (HPC)) 91 % of control; (dose: 75.0 mg/kg/injection, schedule: Q01DX001 (ip), vehicle: Klucel (hydroxypropylcellulose) (HPC)) 96 % of control; (dose: 150.0 mg/kg/injection, schedule: Q01DX001 (ip), vehicle: Klucel (hydroxypropylcellulose) (HPC)) 98 % of control; (dose: 300.0 mg/kg/injection, schedule: Q01DX001 (ip), vehicle: Klucel (hydroxypropylcellulose) (HPC)) 87 % of control.

For the compound `O=C(CCl)N=c1cc(-c2ccc(Cl)cc2)ss1`, the T/C (dose: 50.0 mg/kg/injection, schedule: Q04DX002 (ip), vehicle: saline) was 98 % of control and the T/C under setting [11] was 98 % of control.

`CCOC(=O)c1ccc2cc(C(=O)c3ccccc3)ccc2n1`: the T/C (dose: 50.0 mg/kg/injection, schedule: Q01DX009 (ip), vehicle: saline) is 94 % of control; the T/C (dose: 100.0 mg/kg/injection, schedule: Q01DX009 (ip), vehicle: saline) is 100 % of control; the T/C (dose: 100.0 mg/kg/injection, schedule: Q04DX003 (ip), vehicle: saline) is 91 % of control; the T/C (dose: 200.0 mg/kg/injection, schedule: Q04DX003 (ip), vehicle: saline) was 91 % of control; the T/C (dose: 400.0 mg/kg/injection, schedule: Q04DX003 (ip), vehicle: saline) is 93 % of control.

Consider `CC(C)C12NC(=O)NC(=O)N1CCS2` (configuration not stated), for which the T/C was 93 % of control under setting [9], 96 % of control under setting [7], 100 % of control under setting [8] and 100 % of control under setting [10].

As to `CNC(=O)Nc1ccncc1`, the T/C is 96 % of control under setting [2], 102 % of control under setting [4] and 91 % of control under setting [6].
